pEC50: −log10 of the molar value.
Key:
[1] = tested on: isolated, pressured rat renal interlobular arteries; experiment: Isolated vessel studies: vasoconstrictor response (vascular diameter) to cumulative doses of 20-HETE analogs; format: cell-based
Experimental: General. Experiments were performed on 10 to 12-week old male Sprague-Dawley rats purchased from Harlan Sprague-Dawley Laboratories (Indianapolis, Ind.). The rats were housed in the animal care facility at the Medical College of Wisconsin, which is approved by the American Association for the Accreditation of Laboratory Animal Care. The animals had free access to food and water. All protocols involving animals received approval by the Animal Care Committee of the Medical College of Wisconsin.
(§1) Isolated vessel studies. Interlobular arterioles (70-120 μm inner diameter) were microdissected from the kidneys of rats. The vessels were mounted on glass micropipettes in a perfusion chamber containing physiological saline solution equilibrated with a 95% O2-5% CO2 gas mixture and maintained at 37° C. The vessel were secured to the pipettes and side branches were tied off with 10-0 silk suture. The inflow pipette was connected to a pressurized reservoir to control of intraluminal perfusion pressure, which was monitored using a transducer (Cobe, Lakewood, Colo.). The vessels were stretched to in vivo length measured before microdissection. The outflow cannula was clamped off and intraluminal pressure was maintained at 90 mm Hg during the experiment. Vascular diameters were measured with a video system composed of a stereo microscope (Carl Zeiss, Inc., Germany), a CCTV television camera (KP-130AU, Hitachi, Japan), a videocassette recorder (AG-7300, Panasonic, Japan), a television monitor (CVM-1271, Sony, Japan), and a video measuring system (VIA-100, Boeckeler Instrument Co., Tucson, Ariz.).
(§2) The composition of the perfusate and the bath was (in mM): 119 NaCl, 4.7 KCl, 1.17 MgSO4, 1.6 CaCl2, 12 NaHCO3, 1.18 NaH2PO4, 0.03 EDTA and 10 glucose, pH 7.4. Indomethacin (5 μM), baicalein (0.5 μM) and 17-ODYA (1 μM) were added to the bath to block the endogenous formation and metabolism of eicosanoids via the cyclooxygenase, lipoxygenase and cytochrome P450 pathways. After the equilibration period, cumulative dose response curves were generated for each of the 20-HETE analogs.
Effect of the position of the hydroxyl group on the vasoconstrictor response to 20-HETE. These experiments examined the effects of increasing concentrations of 5(S)-, 8(S)-, 12(S)-, 15(S)-, and 19(S)-HETE on the diameter of isolated, pressured rat renal interlobular arteries. All of these analogs have the same number of carbons, double bonds and molecular weight as 20-HETE (FIG. 1). The major difference between these compounds and 20-HETE is the position of the OH group along the carbon chain. Additional experiments were performed with arachidonic acid and 20-carboxyarachidonic acid, which are structurally similar to 20-HETE but lack a hydroxyl group on the 20th carbon and 20-hydroxyeicosa-6, 15-dienoic acid (reverse 20-HETE) which has the carboxy- and hydroxy-moieties on the 1st and 20th carbons reversed. Cumulative dose response curves were generated for each compound (10^−8 to 10^−6 M) in the presence of indomethacin, baicalein, and 17-ODYA. Vascular diameters were recorded 2 to 3 minutes after the addition of the compounds to the bath.
Effect of the double bonds and carbon chain length to the vasoconstrictor response to 20-HETE. We next examined the importance of the double bonds and the length of the carbon chain to the vasoconstrictor response to 20-HETE. In these studies, the double bonds in the 20-HETE molecule were removed creating partial and saturated 20-HETE derivatives (20-hydroxyeicosa-6(Z),15(Z) dienoic acid; 20-hydroxyeicosanoic acid, FIG. 1). 20-HETE was also shortened by one carbon, creating a 19-carbon analog (19-hydroxynonadeca-5(Z),8(Z),11(Z),14(Z)-tetraenoic acid, FIG. 1) and double bonds were removed, creating a saturated 19-carbon analog (19 hydroxynonadecanoic acid, FIG. 1). […]

[2] = tested on: renal, cerebral and skeletal muscle arterioles; settings: read-out: EC50 as constrictor; cited from earlier work
[3] = tested on: vascular smooth muscle cells; settings: read-out: EC50 as constrictor; cited from earlier work
LLC-PK1 cells = settings: 20-HETE 10^−9 M; cited from earlier work
OK cells = settings: 20-HETE 10^−9 M; cited from earlier work
[4] = tested on: vasoconstrictor response to 20-HETE in isolated renal interlobular arteries; experiment: 20-HETE antagonist activity: dose response curves to 20-HETE before and after addition of analog; format: cell-based, rat; settings: analog 0.5 or 1 μM in bath, 20-HETE 10^−8 to 10^−6 M
Experimental: We also disclose below a test for 20-HETE antagonist activity. In this analysis, test compounds were analyzed by a cumulative dose response curve to 20-HETE generated before and after the addition of the test compound. […] We envision suitable antagonists as similarly blocking the vasoconstrictor response.
as §1, §2
20-HETE antagonist activity. […] In these experiments, cumulative dose response curves to 20-HETE (10^−8 to 10^−6 M) were generated before and after addition of 5(S)-HETE (0.5 μM), 8(S)-HETE (1 μM), 12(S)-HETE (0.5 μM), 15(S)-HETE (1 μM), 19(S)-HETE (1 μM), the C19-analog (1 μM), arachidonic acid (1 μM), 20-carboxy-arachidonic acid (1 μM), reverse 20-HETE (1 μM), saturated 20-HETE (1 μM), and the saturated C19-analog (1 μM) to the bath. Vascular diameters were recorded 2 to 3 minutes after the addition of each dose of 20-HETE to the bath.

melting point | SMILES | threshold concentration that reduced vascular diameter ([1]; renal interlobular arterioles) | pEC50 [2] | pEC50 [3] | growth of cultured cells (LLC-PK1 cells) | growth of cultured cells (OK cells) | effect on the diameter of renal interlobular arteries (vasoconstrictor/agonist activity) ([1]; 10^−8 to 10^−6 M (up to 1 μM), indomethacin, baicalein, 17-ODYA present, diameter 2 to 3 minutes after addition) | effect of analog on the vasoconstrictor response to 20-HETE (antagonist activity) [4] | effect of analog on the vasoconstrictor response to 20-HETE (antagonist activity) ([4]; listed as saturated C20-analog)
– | O=C(O)CCC/C=C\C/C=C\C/C=C\C/C=C\CCCCCO [20-HETE, 20-hydroxyeicosatetraenoic acid] | 10 nM | > 8.00 | > 8.00 | promotes the growth | promotes the growth | – | – | –
86 °C | O=C(O)CCCCCCCCCCCCCCCCCCCO [saturated 20-HETE derivative, 20-Hydroxyeicosanoic Acid] | – | – | – | – | – | no effect | exhibited competitive antagonist activity | not as effective as the parent compounds

From patent publication US6605641B2, “20-HETE antagonists and agonists” (MCW Research Foundation, priority 1998, dated 2003)
